Laboratory results reported in patent publication US7674954B2, “DNA constructs that contain Helianthus annuus Hahb-10 gene coding sequence, method for generating plants with a shortened life cycle and a high tolerance to herbicidal compounds and transgenic plants with that sequence” (Universidad Nacional del Litoral, priority 2006, dated 2010).

Key:
[1] = system: Hahb-10 transcript levels; assay: Northern blot of Hahb-10 transcript levels in treated sunflower seedlings; type: in vivo, Helianthus annuus
Experimental: 2A: Total RNA samples (20 μg each) extracted from 4-day-old seedlings subjected to different treatments as described later were hybridized with a ^32P-labeled Hahb-10 cDNA specific probe (A, upper panel). The same filter was hybridized with an rRNA probe as a control for RNA loading and transfer. Spots obtained with the specific probe were quantified in reference to their rRNA using Image Pro Plus software. […] Quantitation of the signals has been done taking as standard value the signal obtained in these seedlings because the signal obtained in control seedlings was almost not detectable by the software used for this purpose. 2B: Total RNA samples (20 μg each) extracted from 7-day-old seedlings grown in normal illumination conditions (lane 1), in the dark (lane 2), or under continuous illumination at 40 cm from the light source applied to 4-day-old seedlings germinated in the dark during 3 additional days (lane 3) were analyzed by electrophoresis, transferred onto nylon membranes and hybridized with a ^32P-labelled Hahb-10 cDNA specific probe (upper panel). The same filter was hybridized with an rRNA probe as a control for RNA loading and transfer (lower panel). […]

[2] = system: non-transformed (wild-type) Arabidopsis plants; assay: Stem elongation after gibberellin spraying, non-transformed plants; type: in vivo, Arabidopsis thaliana
Experimental: (§1) Stem height was measured with a ruler in non transformed (1) or 35S-Hahb10 transgenic plants (2: line A; 3: line B and 4: line C). Grey bars represent three transgenic lines and white bars represent wild-type plants. Right series in each panel represent GA3 treated plants while left series represent their non-treated counterparts. […] Arabidopsis transgenic or wild-type plants were grown under normal illumination conditions for 15 days. After this, the plants were sprayed with 200 μM GA3. This treatment was repeated at day 25. Stem length was measured in 20- and 30-day-old plants with a ruler. […] In order to investigate the response of Hahb-10 overexpressing lines to this hormone, we treated plants with 200 μM gibberellins as described above.

[3] = system: 35S-Hahb10 transgenic Arabidopsis plants; assay: Stem elongation after gibberellin spraying, Hahb-10 overexpressing plants; type: in vivo, Arabidopsis thaliana
Experimental: as §1

[4] = system: wild-type Arabidopsis thaliana; assay: Herbicide (methyl viologen) spraying, non-transformed plants; type: in vivo; details: 10 to 30 μM methyl viologen sprayed on 21-day-old plants, correlating to concentration
Experimental: (§2) Treatments with the herbicide Paraquat were carried out by growing transgenic and wild-type 21-day-old plants under normal conditions and spraying them with methyl viologen at concentrations of 10, 20 or 30 μM.
(§3) In order to study the effect of Hahb-10 overexpression on the tolerance to herbicides, transgenic and wild-type 21-day-old Arabidopsis thaliana were grown under normal conditions and were sprayed with methyl viologen at concentrations of 10, 20 or 30 μM. Once sprayed, they were left at the same illumination and temperature conditions for 24 hours and, at that time, leaf impairment was easily observable. One week after MV treatment, chlorophyll content in the leaves from both genotypes was analyzed. Plants were allowed to recover for three days and the percentage of survivors, either wild-type or transgenic ones expressing the Hahb-10 gene, was recorded.

[5] = system: transgenic Arabidopsis thaliana expressing the Hahb-10 gene; assay: Herbicide (methyl viologen) spraying, Hahb-10 transgenic plants; type: in vivo; details: 10 to 30 μM methyl viologen sprayed on 21-day-old plants; three independent transgenic lines; dose-dependent
Experimental: as §2, §3

`C=C1C[C@]23C[C@@]1(O)CC[C@H]2[C@@]12C=C[C@H](O)[C@@](C)(C(=O)O1)[C@H]2[C@@H]3C(=O)O` [gibberellins, gibberellic acid] was tested, and the “Hahb-10 transcript levels raised with respect to the heat-shock treatment” value ([1]; 100 μM gibberellic acids, Northern blot normalised to rRNA) was 5 fold, the “increase in stem elongation with respect to non-treated controls” value ([2]; 200 μM gibberellins sprayed, 5 days after the first treatment (20-day-old plants), non-transformed plants) was 3.7 fold and the “stem elongation induction on average” value ([2]; 200 μM gibberellins, after the second treatment (30-day-old plants), wild-type plants) was 1.5 fold. For the same molecule, the “increase in stem length with respect to non-treated controls” value ([3]; 200 μM gibberellins sprayed, 5 days after the first treatment (20-day-old plants)) was 1.6 fold and the “stem elongation induction on average” value ([3]; 200 μM gibberellins, after the second treatment (30-day-old plants)) was 1.2 fold.
In the case of `C[n+]1ccc(-c2cc[n+](C)cc2)cc1` [methyl viologen], the “effect of herbicide treatment on plants” value [4] is reported as “dramatically affected” and the “effect of herbicide treatment on plants” value [5] is reported as “resistant”.
For `OC[C@H]1O[C@@](CO)(O[C@H]2O[C@H](CO)[C@@H](O)[C@H](O)[C@H]2O)[C@@H](O)[C@@H]1O` [sucrose], the “effect on Hahb-10 mRNA levels” value ([1]; sucrose 10% w/v, similar to slight enhancement by heat/cold shock, water stress, hypoxia) was “produced a similar effect”.
